{"source": "patent US20240277715A1", "about": "“COMBINATION THERAPIES COMPRISING A METTL3 INHIBITOR AND A FURTHER ANTICANCER AGENT” (Storm Therapeutics Limited, priority 2021, published 2024)", "key": {"[1]": {"tested_on": "A20 mouse B cell lymphoma", "assay": "Subcutaneous A20 lymphoma syngeneic model, anti-tumour efficacy", "type": "in vivo", "excerpt": "(§1) The in vivo effect of METTL3 inhibition in combination with anti-PD1 immune checkpoint inhibitor was investigated using syngeneic mouse tumour models in immune-competent hosts. Mouse tumour models can be grown in appropriate host strains and are widely used to investigate the effects of therapeutic agents on the immune system and cancer growth. There are a limited range of mouse syngeneic tumour models available, far fewer than human cell lines, and they are widely used in the art to support potential clinical utility of immune stimulatory approaches across multiple indications. We exemplify the potential role of STM3480 and combinations with immune checkpoint inhibitors such as anti-PD-1 antibodies in multiple tumour models including A20 (murine B cell lymphoma), EMT-6 (murine breast cancer) and CT-26 (murine colorectal cancer).\nThe objective of this study is to assess the anti-tumour efficacy of STM3480 in combination with anti-PD1 in subcutaneous A20 mouse B cell lymphoma cancer model in female BALB/c mice.\nA20 (#ATCC TIB-208) mouse B cell lymphoma cells were cultured in (RPMI-1640+10% non H.I. FBS+0.05 mM 2-mercaptoethanol) media. 5×10^5 viable cells in 0.1 ml PBS were injected subcutaneously into the left flank of 7-9 week old female BALB/cN (BALB/cAnNCrl) Crl mice utilising 27 gauge needles following skin disinfection with 70% ethanol.\nTumours were measured three times a week and tumour volumes estimated using the formula 0.5 (L×W^2) by measuring the tumour in two dimensions using electronic callipers for the duration of the study.\nMice were randomly allocated to four treatment groups and treatment commenced when tumours reached a mean volume of ˜50-100 mm^3. Mice were allocated to their treatment groups with uniform mean tumour volume between groups. Treatment was continued for up to 3 weeks, or until individual mice were sacrificed for humane reasons according to Home Office license regulations (e.g. body weight loss >20%; tumour volume >1500 mm^3; tumour ulceration; loss of clinical condition). The final dose was given on day 32 after implantation.\nVehicle for STM3480—Hydroxypropyl-β-Cyclodextrin (HPBCD)/Sodium Acetate buffer pH:4.6 50 mM (10%/90%; w/v): Weigh 1.025 g of sodium acetate anhydrous. Add 700 μl of glacial acetic acid then make up to 500.0 ml with ultrapurified water. pH:4.6 50 mM.\nFor 1 ml volume 5 mg/ml STM3480 dosing solution: Weigh 5.0 mg of STM00003480 compound (Batch: EV-WZM001-421-002). Add 1.0 mL of HPBCD/Acetate buffer pH:4.6 50 mM (10%/90%; w/v). Magnetic stirring at high speed at ambient temperature; Overnight stirring may be required if there are any signs of precipitation. The formulation is a slight yellow solution with very few particles in suspension. Homogenize with a vortex before administration. […]"}, "[2]": {"tested_on": "CT26 mouse colorectal cancer", "assay": "Subcutaneous CT26 colorectal cancer syngeneic model, anti-tumour efficacy", "type": "in vivo", "settings": "10 per group", "excerpt": "as §1\nThe objective of this study is to assess the anti-tumour efficacy of STM3480 in combination with anti-PD1 in subcutaneous CT26 mouse colorectal cancer model in female BALB/c mice. CT26.WT (CRL-2638) mouse […] cells were cultured in (RPMI—1640+10% FBS+2 mM L-Glutamine) media. […]\nTumours were measured three times a week and tumour volumes estimated using the formula 0.5 (L×W^2) by measuring the tumour in two dimensions using electronic callipers for the duration of the study. […]"}}, "data": [{"smiles": "O=C(NCc1ccc2cc(CNCC3CCC3)[nH]c2c1)c1cc(=O)n2ccccc2n1", "note": "[STM3480, N-[(2-{[(cyclobutylmethyl)amino]methyl}-1H-indol-6-yl)methyl]-4-oxo-4H-pyrido[1,2-a]pyrimidine-2-carboxamide]", "values": [{"measurement": "tumour growth compared to the vehicle control (mean tumour volume)", "setting": "[1]; A20, FIG. 3", "value": "reduction of tumour growth"}, {"measurement": "Mean tumour volume d24", "setting": "[1]; A20, female BALB/c mice, STM3480 50 mg/kg p.o., anti PD1 10 mg/kg i.p. BIW, up to 3 weeks, 10 per group", "value": 425, "unit": "mm3"}, {"measurement": "progressive tumour growth, animals", "setting": "[1]; A20, individual tumours (FIG. 4)", "value": "8/10"}, {"measurement": "No. mice with complete regressions", "setting": "[1]; A20, STM3480 50 mg/kg p.o., anti PD1 10 mg/kg i.p. BIW, 10 per group", "value": 1}, {"measurement": "Mean tumour volume d28", "setting": "[2]; CT26, female BALB/c mice, STM3480 50 mg/kg p.o., anti PD1 10 mg/kg i.p. BIW, up to 3 weeks", "value": 768, "unit": "mm3"}, {"measurement": "No. mice with regressions", "setting": "[2]; CT26", "value": 0}]}]}
